Measured values from ChEMBL document CHEMBL1138847, “Improved structure-activity relationship analysis of HIV-1 protease inhibitors using interaction kinetic data” (J Med Chem, 2004).

Key:
[1] = target: T1, Human immunodeficiency virus type 1 protease (Human immunodeficiency virus 1, UniProt Q72874); assay: Binding affinity for human immunodeficiency virus type 1 protease
[2] = target: Human immunodeficiency virus type 1 protease (Human immunodeficiency virus 1) (UniProt Q72874)
Description: Dissociation rate constant for human immunodeficiency virus type 1 protease

MT4 = assay: Effective dose of compound required to inhibit replication of human immunodeficiency virus type 1 in MT-4 cells; assay type: functional; details: read-out: ED50 (the source's name)
[3] = target: T1, Human immunodeficiency virus type 1 protease; assay: Inhibition constant for human immunodeficiency virus type 1 protease
[4] = target: Human immunodeficiency virus type 1 protease (Human immunodeficiency virus 1) (UniProt Q72874); remark: listed apart in the source
Description: Association rate constant for human immunodeficiency virus type 1 protease

Compound | Kd [1] | k off [2] | EC50 (MT4) | Ki [3] | k on [4]
Cc1cc(NS(=O)(=O)c2ccc(N)cc2)no1 [SULFAMETHOXAZOLE] | 577 nM | 0.06 s⁻¹ | > 79000 nM | 10.1 nM | 188000 M⁻¹ s⁻¹
COC(=O)/C=C/c1ccc(O[C@@H](C(=O)NC(=O)[C@@H](C)C(C)C)[C@H](O)[C@@H](O)[C@@H](O)C(=O)NC(=O)[C@@H](C)C(C)C)cc1 | 1.95 nM | 0.000365 s⁻¹ | 2580 nM | 0.09 nM | 204000 M⁻¹ s⁻¹
Cc1c(O)cccc1C(=O)N[C@@H](CSc1ccccc1)[C@H](O)CN1C[C@H]2CCCC[C@H]2C[C@H]1C(=O)NC(C)(C)C | – | – | 20 nM | – | –
O=C(NC1c2ccccc2C[C@H]1O)[C@H](O)C[C@@H](O)[C@@H](Oc1ccccc1)C(=O)NC1c2ccccc2C[C@@H]1O (stereo partly drawn) | 35.8 nM | 0.02 s⁻¹ | 1440 nM | – | 666000 M⁻¹ s⁻¹
CC(C)[C@H](C)C(=O)NC(=O)[C@H](O)[C@H](O)[C@@H](O)[C@@H](Oc1ccc(Br)cc1)C(=O)NC(=O)[C@@H](C)C(C)C | 21.1 nM | 0.00169 s⁻¹ | 650 nM | 0.3 nM | –
CC(C)(C)NC(=O)[C@@H]1CN(Cc2cccnc2)CCN1C[C@@H](O)C[C@@H](Cc1ccccc1)C(=O)N[C@H]1c2ccccc2C[C@H]1O | – | – | 50 nM | – | –
CC(C)[C@H](C)C(=O)NC(=O)[C@H](O)[C@@H](O)[C@H](O)[C@@H](Oc1ccccc1)C(=O)NC(=O)[C@@H](C)C(C)C | 2990 nM | 0.02 s⁻¹ | 22900 nM | 40 nM | 9200 M⁻¹ s⁻¹
CC(C)(C)NC(=O)c1ccccc1NC[C@H](O)[C@H](Cc1ccccc1)NC(=O)[C@H](CC(N)=O)NC(=O)c1ccc2ccccc2n1 | – | – | 10100 nM | – | –
CC(C)[C@H](C)C(=O)NC(=O)[C@H](O)[C@H](O)[C@@H](O)[C@@H](Oc1ccc(C2=C(O)C(=O)CCC2)cc1)C(=O)NC(=O)[C@@H](C)C(C)C | 17.5 nM | 0.000487 s⁻¹ | 5600 nM | 0.3 nM | 29300 M⁻¹ s⁻¹
CC(NO)c1cccc(CN2[C@H](COc3ccccc3)[C@H](O)[C@@H](O)[C@@H](COc3ccccc3)N(Cc3cccc(C(C)NO)c3)S2(=O)=O)c1 (stereo partly drawn) | 169 nM | 0.04 s⁻¹ | 2900 nM | 5.6 nM | 512000 M⁻¹ s⁻¹
COC(=O)N[C@H](C(=O)N[C@@H](Cc1ccccc1)[C@@H](O)CN(Cc1ccc(-c2ccccn2)cc1)NC(=O)[C@@H](NC(=O)OC)C(C)(C)C)C(C)(C)C [ATAZANAVIR] | 0.4 nM | 0.00069 s⁻¹ | 6 nM | 0.24 nM | 1.67e+06 M⁻¹ s⁻¹
CC(C)[C@H](C)C(=O)NC(=O)[C@H](O)[C@H](O)[C@@H](O)[C@@H](Oc1ccc(-c2ccccn2)cc1)C(=O)NC(=O)[C@@H](C)C(C)C | 1.18 nM | 0.000373 s⁻¹ | 640 nM | 0.61 nM | 323000 M⁻¹ s⁻¹
C[C@@H](Cc1ccc(O)cc1)C(=O)NC(=O)[C@H](O)[C@H](O)[C@@H](O)[C@@H](Oc1ccccc1)C(=O)NC(=O)[C@@H](C)Cc1ccc(O)cc1 | 309000 nM | 0.06 s⁻¹ | > 67000 nM | 5000 nM | 172 M⁻¹ s⁻¹
O=C(NC1c2ccccc2C[C@@H]1O)[C@H](O)[C@H](O)[C@@H](O)[C@@H](Oc1ccccc1)C(=O)NC1c2ccccc2C[C@@H]1O (stereo partly drawn) | 13.9 nM | 0.01 s⁻¹ | 100 nM | 0.6 nM | 6.39e+06 M⁻¹ s⁻¹
CC(C)c1nc(CN(C)C(=O)N[C@H](C(=O)N[C@@H](Cc2ccccc2)C[C@H](O)[C@H](Cc2ccccc2)NC(=O)OCc2cncs2)C(C)C)cs1 [RITONAVIR] | – | – | 50 nM | – | –
CC(C)CN(C[C@@H](O)[C@H](Cc1ccccc1)NC(=O)O[C@H]1CCOC1)S(=O)(=O)c1ccc(N)cc1 | 1.1 nM | 0.00488 s⁻¹ | 80 nM | 0.23 nM | 4.43e+06 M⁻¹ s⁻¹
CC(C)[C@H](C)C(=O)NC(=O)[C@H](O)[C@H](O)[C@@H](O)[C@@H](Oc1ccc(CCc2ccccc2)cc1)C(=O)NC(=O)[C@@H](C)C(C)C | 34.2 nM | 0.00163 s⁻¹ | 2050 nM | 0.8 nM | 81100 M⁻¹ s⁻¹
Cc1cccc(C)c1OCC(=O)N[C@@H](Cc1ccccc1)[C@@H](O)C[C@H](Cc1ccccc1)NC(=O)[C@H](C(C)C)N1CCCNC1=O [LOPINAVIR] | – | 0.000654 s⁻¹ | 10 nM | – | 6.63e+06 M⁻¹ s⁻¹
CC(C)[C@H](C)C(=O)NC(=O)[C@H](O)[C@H](O)[C@@H](O)[C@@H](Oc1ccccc1)C(=O)NC1c2ccccc2C[C@@H]1O (stereo partly drawn) | 4.42 nM | 0.02 s⁻¹ | 120 nM | 0.05 nM | 5.97e+06 M⁻¹ s⁻¹
O=S1(=O)N(Cc2ccc(CO)cc2)[C@H](COc2ccccc2)[C@H](O)[C@@H](O)[C@@H](COc2ccccc2)N1Cc1ccc(CO)cc1 | – | 0.0273 s⁻¹ | 1550 nM | – | –
CC(C)[C@H](C)C(=O)NC(=O)[C@H](O)[C@H](O)[C@@H](O)[C@@H](Oc1ccc(-c2nccs2)cc1)C(=O)NC(=O)[C@@H](C)C(C)C | 0.64 nM | 0.000303 s⁻¹ | 240 nM | 0.55 nM | 477000 M⁻¹ s⁻¹
CC(C)[C@H](C)C(=O)NC(=O)[C@H](O)[C@H](O)[C@@H](O)[C@@H](Oc1ccccc1)C(=O)NC(=O)[C@@H](C)C(C)C | 10.8 nM | 0.00367 s⁻¹ | 1320 nM | 0.4 nM | 355000 M⁻¹ s⁻¹
CC(C)[C@H](C)C(=O)NC(=O)[C@H]([O-])[C@H](O)[C@@H](O)[C@@H](Oc1ccc(C2=CC=[S+]C2)cc1)C(=O)NC(=O)[C@@H](C)C(C)C | 3.04 nM | 0.000432 s⁻¹ | 40 nM | 1.2 nM | 348000 M⁻¹ s⁻¹
CC(C)(C)NC(=O)c1ccccc1NC[C@@H](O)[C@H](Cc1ccccc1)NC(=O)[C@H](CC(N)=O)NC(=O)OCc1ccccc1 | – | – | 3310 nM | – | –
CCO[C@@H](C(=O)NC(=O)[C@@H](C)C(C)C)[C@H](O)[C@@H](O)[C@@H](O)C(=O)NC(=O)[C@@H](C)C(C)C | 38400 nM | 0.00485 s⁻¹ | > 192000 nM | – | 134 M⁻¹ s⁻¹
CC(C)[C@H](C)C(=O)NC(=O)[C@H](O)[C@H](O)[C@@H](O)[C@@H](Oc1ccc(-c2cccc([N+](=O)[O-])c2)cc1)C(=O)NC(=O)[C@@H](C)C(C)C | 18.2 nM | 0.000817 s⁻¹ | 160 nM | 1.4 nM | 181000 M⁻¹ s⁻¹
CC(C)(C)NC(=O)[C@@H]1C[C@@H]2CCCC[C@@H]2CN1C[C@@H](O)[C@H](Cc1ccccc1)NC(=O)[C@H](CC(N)=O)NC(=O)c1ccc2ccccc2n1 | – | – | 10 nM | – | –
